In PubChem BioAssay AID1963832 (Molecular Pharmacology Branch, DTP, NCI, 2024):

System: 885724-159-R-J1-PDC complex spheroid viability
Test: Anticancer human tumor 885724-159-R-J1-PDC patient-derived pancreatic adenocarcinoma cell line growth inhibition [POLQ]
Details: for IC50: curve of first compound; for viability, T/C: stronger effect = lower value
How it was run: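 PDC + HUVEC + MSC complex spheroids; POLQ inhibitors ± partner drugs; top conc. at/near clinical Cmax, else 10 microM (SN-38 1 microM), half-log dilutions; 37 degrees C, 5% CO2.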

[1] = second compound 0.0316 µM, first compound 0.0316 µM
[2] = second compound 0.0316 µM, first compound 0.1 µM
[3] = second compound 0.0316 µM, first compound 0.316 µM
[4] = second compound 0.0316 µM, first compound 1 µM
[5] = second compound 0.0316 µM, first compound 3.16 µM
[6] = second compound 0.0316 µM, first compound 10 µM
[7] = second compound 0.1 µM, first compound 0.0316 µM
[8] = second compound 0.1 µM, first compound 0.1 µM
[9] = second compound 0.1 µM, first compound 0.316 µM
[10] = second compound 0.1 µM, first compound 1 µM
[11] = second compound 0.1 µM, first compound 3.16 µM
[12] = second compound 0.1 µM, first compound 10 µM
[13] = second compound 0.316 µM, first compound 0.0316 µM
[14] = second compound 0.316 µM, first compound 0.1 µM
[15] = second compound 0.316 µM, first compound 0.316 µM
[16] = second compound 0.316 µM, first compound 1 µM
[17] = second compound 0.316 µM, first compound 3.16 µM
[18] = second compound 0.316 µM, first compound 10 µM
[19] = second compound 1 µM, first compound 0.0316 µM
[20] = second compound 1 µM, first compound 0.1 µM
[21] = second compound 1 µM, first compound 0.316 µM
[22] = second compound 1 µM, first compound 1 µM
[23] = second compound 1 µM, first compound 3.16 µM
[24] = second compound 1 µM, first compound 10 µM
[25] = second compound 3.16 µM, first compound 0.0316 µM
[26] = second compound 3.16 µM, first compound 0.1 µM
[27] = second compound 3.16 µM, first compound 0.316 µM
[28] = second compound 3.16 µM, first compound 1 µM
[29] = second compound 3.16 µM, first compound 3.16 µM
[30] = second compound 3.16 µM, first compound 10 µM
[31] = second compound 10 µM, first compound 0.0316 µM
[32] = second compound 10 µM, first compound 0.1 µM
[33] = second compound 10 µM, first compound 0.316 µM
[34] = second compound 10 µM, first compound 1 µM
[35] = second compound 10 µM, first compound 3.16 µM
[36] = second compound 10 µM, first compound 10 µM
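Further: spheroids exposed to compounds for 7 days.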

COc1cccc2c1C(=O)c1c(O)c3c(c(O)c1C2=O)CC(O)(C(=O)CO)CC3OC1CC(N)C(O)C(C)O1 (stereo unspecified) + Cc1cccc(N(C)C(=O)C2C(O)CCN2c2nc(C)cc(C(F)(F)F)c2C#N)c1
IC50 (second compound 0.0316 µM): 0.142 µM
IC50 (second compound 0.1 µM): 0.14 µM
IC50 (second compound 0.316 µM): 0.139 µM
IC50 (second compound 1 µM): 0.112 µM
IC50 (second compound 3.16 µM): 0.117 µM
IC50 (second compound 10 µM): 0.124 µM
viability, T/C [1]: 72.8%
viability, T/C [2]: 57.1%
viability, T/C [3]: 32.5%
viability, T/C [4]: 11.3%
viability, T/C [5]: 5.41%
viability, T/C [6]: 6.51%
viability, T/C [7]: 67.6%
viability, T/C [8]: 55.5%
viability, T/C [9]: 34.5%
viability, T/C [10]: 11.9%
viability, T/C [11]: 5.56%
viability, T/C [12]: 8.59%
viability, T/C [13]: 80.8%
viability, T/C [14]: 57.1%
viability, T/C [15]: 31%
viability, T/C [16]: 8.3%
viability, T/C [17]: 5.71%
viability, T/C [18]: 9.04%
viability, T/C [19]: 75.3%
viability, T/C [20]: 51%
viability, T/C [21]: 30.4%
viability, T/C [22]: 10.5%
viability, T/C [23]: 5.49%
viability, T/C [24]: 6.59%
viability, T/C [25]: 75.5%
viability, T/C [26]: 51.7%
viability, T/C [27]: 30.3%
viability, T/C [28]: 5.5%
viability, T/C [29]: 6.53%
viability, T/C [30]: 6.91%
viability, T/C [31]: 72.7%
viability, T/C [32]: 55.6%
viability, T/C [33]: 22.9%
viability, T/C [34]: 2.58%
viability, T/C [35]: 4.96%
viability, T/C [36]: 6.82%

Nc1ccn(C2OC(CO)C(O)C2(F)F)c(=O)n1 (stereo unspecified) + Cc1cccc(N(C)C(=O)C2C(O)CCN2c2nc(C)cc(C(F)(F)F)c2C#N)c1
IC50 (second compound 0.0316 µM): 5.14 µM
IC50 (second compound 0.1 µM): > 10 µM
IC50 (second compound 0.316 µM): 4.24 µM
IC50 (second compound 1 µM): 4.15 µM
IC50 (second compound 3.16 µM): 3.06 µM
IC50 (second compound 10 µM): 7.26 µM
viability, T/C [1]: 59.3%
viability, T/C [2]: 55.2%
viability, T/C [3]: 55.2%
viability, T/C [4]: 52.1%
viability, T/C [5]: 56.2%
viability, T/C [6]: 42.8%
viability, T/C [7]: 70.7%
viability, T/C [8]: 56%
viability, T/C [9]: 57.5%
viability, T/C [10]: 58.2%
viability, T/C [11]: 55.3%
viability, T/C [12]: 45.9%
viability, T/C [13]: 67.2%
viability, T/C [14]: 58.5%
viability, T/C [15]: 55%
viability, T/C [16]: 57.6%
viability, T/C [17]: 53.1%
viability, T/C [18]: 45.4%
viability, T/C [19]: 65.1%
viability, T/C [20]: 55.4%
viability, T/C [21]: 58.2%
viability, T/C [22]: 57.4%
viability, T/C [23]: 53.1%
viability, T/C [24]: 42.8%
viability, T/C [25]: 66%
viability, T/C [26]: 56.7%
viability, T/C [27]: 52%
viability, T/C [28]: 56.8%
viability, T/C [29]: 54.5%
viability, T/C [30]: 42.8%
viability, T/C [31]: 68.9%
viability, T/C [32]: 55.5%
viability, T/C [33]: 59.3%
viability, T/C [34]: 56%
viability, T/C [35]: 58%
viability, T/C [36]: 45.1%

O=C(c1cc(Cc2n[nH]c(=O)c3ccccc23)ccc1F)N1CCN(C(=O)C2CC2)CC1 + Cc1cccc(N(C)C(=O)C2C(O)CCN2c2nc(C)cc(C(F)(F)F)c2C#N)c1
IC50 (second compound 0.0316 µM): > 10 µM
IC50 (second compound 0.1 µM): > 10 µM
IC50 (second compound 0.316 µM): > 10 µM
IC50 (second compound 1 µM): > 10 µM
IC50 (second compound 3.16 µM): > 10 µM
IC50 (second compound 10 µM): > 10 µM
viability, T/C [1]: 85.9%
viability, T/C [2]: 99.1%
viability, T/C [3]: 97.2%
viability, T/C [4]: 94.2%
viability, T/C [5]: 94.6%
viability, T/C [6]: 76.3%
viability, T/C [7]: 97.3%
viability, T/C [8]: 104%
viability, T/C [9]: 100%
viability, T/C [10]: 102%
viability, T/C [11]: 94.7%
viability, T/C [12]: 83.1%
viability, T/C [13]: 104%
viability, T/C [14]: 91.7%
viability, T/C [15]: 91.9%
viability, T/C [16]: 99.6%
viability, T/C [17]: 98%
viability, T/C [18]: 75.9%
viability, T/C [19]: 109%
viability, T/C [20]: 84.3%
viability, T/C [21]: 89.1%
viability, T/C [22]: 94.1%
viability, T/C [23]: 94.6%
viability, T/C [24]: 86.1%
viability, T/C [25]: 92%
viability, T/C [26]: 89.7%
viability, T/C [27]: 99.1%
viability, T/C [28]: 89.2%
viability, T/C [29]: 103%
viability, T/C [30]: 82.9%
viability, T/C [31]: 98%
viability, T/C [32]: 109%
viability, T/C [33]: 109%
viability, T/C [34]: 86.1%
viability, T/C [35]: 104%
viability, T/C [36]: 79.9%
